Entries after “also recorded” stand apart in the source; their conditions may differ.
Assays:
oxylipin = test: LCMS/MS oxylipin analysis of MB49 bladder cancer tumor tissue; format: in vivo; conditions: mice on the control diet only
Experimental: These lipid mediators are potential biomarkers of bladder cancer and the anti-tumor response to the diets (e.g. omega-3 or omega-6 fatty acids), immunotherapy (e.g., anti-PD1), and sEH inhibitor (e.g., 5026). (A) Heatmap of LCMS/MS oxylipin analysis performed on murine MB49 bladder cancer tumor tissue. […] Tumor tissue from mice treated with the control diet only. […] Tumor tissue from mice treated with the control diet only.

[1] = tested on: MB49 bladder cancer cells; test: Murine bladder cancer model (MB49), subcutaneous tumor growth; format: in vivo, mice; conditions: for MB49 tumor volume, combination with anti-PD1: omega-6 rich diet, 5 mg/kg/day via drinking water + anti-PD1 200 μg Q3D, vs either agent alone, P<0.05
Excerpt: 10^6 MB49 cells were introduced into mice, and treatment was initiated with established tumors (˜200 mm^3), seven days after tumor injection. The CTLA-4 antibody used is from BioCell, Catalog number BE0131; In VivoMAb anti-mouse CTLA-4 (CD152). See, FIG. 1A and FIG. 1B.
The mice in this study were randomized, and treatment was initiated with established tumors (˜200 mm^3), seven days after […]. See, FIG. 2A-2C; FIG. 9A-9F.
(A & B). Mice were inoculated subcutaneously with 1×10^6 MB49 cells. Treatment initiated when MB49 tumors reached ˜200 mm^3. Mice were randomized and treated with PTUPB (60 mg/kg Q3D, orally) or chemotherapy (cisplatin+gemcitabine; cisplatin=5 mg/kg, gemcitabine=75 mg/kg, Q3D). Mice were sacrificed after 16 days of treatment. n=4-5 mice/group. Gene expression levels of sEH and COX-2 in tumor tissue after 16 days of treatment. Analyzed by qPCR and normalized by GAPDH. A: **Control vs chemotherapy (p=0.0099), **PTUPB vs chemotherapy (p=0.0095); B. **Control vs chemotherapy (p=0.0072), ***PTUPB vs chemotherapy (p=0.0001). (C) Mice were inoculated subcutaneously with 1×10^6 MB49 cells. Treatment initiated when MB49 tumors reached ˜200 mm^3. Mice were randomized and treated with combinations of PTUPB (60 mg/kg Q3D, orally), anti-PD1 (200 μg Q3D), anti-CTLA4 ([…]), chemotherapy (cisplatin+gemcitabine; cisplatin=5 mg/kg, gemcitabine=75 mg/kg, Q3D). Mice were sacrificed after 16 days of treatment. n=4-5 mice/group. *p<0.05. (D and E). Gene expression levels of EGF and VEGF-C in tumor tissue after 16 days of treatment. Analyzed by qPCR and normalized by GAPDH. D: *chemotherapy vs chemotherapy+PTUPB (p=0.0136); E: **Control vs anti-CTLA4 (p=0.0012), **PTUPB vs anti-CTLA4 (p=0.0081), **anti-CTLA4 vs anti-CTLA4+PTUPB (0.0296). (F) Mice were inoculated orthotopically into the bladder wall with 5×10^5 MB49 cells. Treatment was initiated 3 days after tumor injection with PTUPB (60 mg/kg Q3D, orally). n=5 mice per group. **PTUPB vs control (p=0.0018).
(§1) (A) MB49 bladder cancer tumor volume over time. Following 12 days of pre-treatment with the omega-6 rich diet, tumor cells (1×10^6 MB49 bladder cancer cells) were injected subcutaneously into the mid dorsum. Once tumors reached ˜200 mm^3, treatment was initiated with anti-PD1 (200 μg Q3D), EC5026 (5 mg/kg/day via drinking water), combination anti-PD1+EC5026, or no treatment (control). […] N=3-5 mice per group. P<0.05. (B) B16F10 melanoma tumor volume over time. […]. Following 12 days of pre-treatment with the omega-6 rich diet, tumor cells (1×10^6 B16F10 melanoma cells) were injected subcutaneously into the mid dorsum. Once tumors reached ˜200 mm^3, treatment was initiated with anti-CTLA4 (200 μg 1st dose, then 100 μg Q3D), 1770 (5 mg/kg/day via drinking water), combination 1770+anti-CTLA4, or no treatment (control). […] N=4-5 mice per group.
FIGS. 6A-6E Dietary omega-3 supplementation inhibits tumor growth in both fast-growing and slow-growing tumor models in mice. (A) Prostate cancer (RM1) tumor growth over time. Following 12 days of pre-treatment with the omega-3 rich diet or control diet, tumor cells (1×10^5 RM1 prostate cancer cells) were injected subcutaneously into the mid dorsum. […] N=3-5 mice/group. (B) MB49 bladder cancer tumor volume over time. Following 12 days of pre-treatment with the omega-3 rich diet or control diet, tumor cells (1×10^6 MB49 bladder cancer cells) were injected subcutaneously. […] N=3-5 mice/group. […]

B16F10 melanoma cells = test: B16F10 melanoma tumor volume over time; format: in vivo, mice; conditions: omega-6 rich diet; 5 mg/kg/day via drinking water + anti-CTLA4; vs either agent alone
Experimental: as §1
(A) MB49 bladder cancer tumor volume over time. Following 12 days of pre-treatment with the omega-3 rich diet or control diet, tumor cells (1×10^6 MB49 bladder cancer cells) were injected subcutaneously into the mid dorsum. Once tumors reached ˜200 mm^3, treatment was initiated with either anti-PD1 (200 μg Q3D) or no treatment (control). […] N=3-5 mice per group. p<0.0001. (B) Prostate cancer (RM1) tumor volume over time. […]

## CC[C@H](C)C(=O)N1CCC(NC(=O)Nc2ccc(OC(F)(F)F)c(F)c2)CC1 [EC5026]
oxylipin
  levels of 7,8-DiHDPE, 17,18-DiHETE, and 15,16-DiHODE in MB49 bladder cancer tissue: prevented this increase
  levels of 15(16)-EpODE, 12(13)-EpOME, 17(18)-EpETE and 14(15)-EpETrE in MB49 bladder cancer tissue: prevented the drop in these metabolites, and increased levels of these metabolites compared to controls
[1]; 5 mg/kg/day
  MB49 tumor volume, combination with anti-PD1: significantly smaller tumors
[1]; listed as 5026, 5 mg/kg/day
  MB49 tumor volume, combination with anti-PD1: unexpected induction of tumor regression; also recorded: synergizes with immunotherapy

## NS(=O)(=O)c1ccc(-n2nc(CCCNC(=O)Nc3ccc(C(F)(F)F)cc3)cc2-c2ccccc2)cc1 [PTUPB]
[1]; 10^6 MB49 cells, established tumors (~200 mm^3), seven days after tumor injection, FIG. 1
  tumor growth, combination with immunotherapy (anti-CTLA-4): unexpected induction of tumor regression; also recorded: enhances immunotherapy
[1]; PTUPB 60 mg/kg Q3D orally, MB49, FIG. 9
  tumor growth, alone and with chemotherapy or immunotherapy: blocks tumor growth and enhances chemotherapy and immunotherapy
[1]; established MB49 tumors (~200 mm^3), 16 days of treatment, FIG. 2, FIG. 9
  tumor growth, combination with chemotherapy (gemcitabine and cisplatin) and immunotherapy: unexpected induction of tumor regression; also recorded: induce tumor regression

## CCC(=O)N1CCC(NC(=O)Nc2ccc(OC(F)(F)F)cc2)CC1 [Compound 1770]
B16F10 melanoma cells
  B16F10 melanoma tumor volume, combination with anti-CTLA4: tended to have smaller tumors

— patent US20250205217A1, “METHODS OF IMPROVING CANCER IMMUNOTHERAPY” (THE REGENTS OF THE UNIVERSITY OF CALIFORNIA, priority 2022, published 2025)
